Results: ChEMBL document CHEMBL4765353, “Antitubercular polyhalogenated phenothiazines and phenoselenazine with reduced binding to CNS receptors” (Eur J Med Chem, 2020)
In brackets after ≈: the same amount, converted by molar mass.

Key:
[1] = test system: Mycobacterium tuberculosis; format: functional; details: 504 h, time 3 weeks, read-out: MIC100
[2] = test system: Mycobacterium tuberculosis; format: functional; details: H37Rv, 240 h, time 10 day
[3] = target: 5-hydroxytryptamine receptor 6 (Homo sapiens, UniProt P50406); test: Displacement of [3H]-LSD from human 5HT6 receptor expressed in HEK293 cells; format: cell-based
Sequence of 5-hydroxytryptamine receptor 6 (P50406 whole entry): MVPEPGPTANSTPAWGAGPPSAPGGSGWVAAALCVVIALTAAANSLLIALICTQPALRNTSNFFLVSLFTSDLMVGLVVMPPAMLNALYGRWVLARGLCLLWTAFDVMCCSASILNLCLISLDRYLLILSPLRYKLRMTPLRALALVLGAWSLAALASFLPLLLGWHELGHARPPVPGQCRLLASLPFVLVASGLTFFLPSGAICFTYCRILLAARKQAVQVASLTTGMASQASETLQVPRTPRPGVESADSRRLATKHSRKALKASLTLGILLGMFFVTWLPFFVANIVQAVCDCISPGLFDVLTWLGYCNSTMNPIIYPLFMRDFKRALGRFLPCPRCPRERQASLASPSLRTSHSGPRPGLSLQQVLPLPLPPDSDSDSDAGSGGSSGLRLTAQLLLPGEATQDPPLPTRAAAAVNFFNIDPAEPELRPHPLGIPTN

[4] = target: 5-hydroxytryptamine receptor 7 (Homo sapiens, UniProt P34969); test: Displacement of [3H]-5-CT from human 5HT7 receptor expressed in HEK293 cells; format: cell-based
Sequence of 5-hydroxytryptamine receptor 7 (P34969 whole entry): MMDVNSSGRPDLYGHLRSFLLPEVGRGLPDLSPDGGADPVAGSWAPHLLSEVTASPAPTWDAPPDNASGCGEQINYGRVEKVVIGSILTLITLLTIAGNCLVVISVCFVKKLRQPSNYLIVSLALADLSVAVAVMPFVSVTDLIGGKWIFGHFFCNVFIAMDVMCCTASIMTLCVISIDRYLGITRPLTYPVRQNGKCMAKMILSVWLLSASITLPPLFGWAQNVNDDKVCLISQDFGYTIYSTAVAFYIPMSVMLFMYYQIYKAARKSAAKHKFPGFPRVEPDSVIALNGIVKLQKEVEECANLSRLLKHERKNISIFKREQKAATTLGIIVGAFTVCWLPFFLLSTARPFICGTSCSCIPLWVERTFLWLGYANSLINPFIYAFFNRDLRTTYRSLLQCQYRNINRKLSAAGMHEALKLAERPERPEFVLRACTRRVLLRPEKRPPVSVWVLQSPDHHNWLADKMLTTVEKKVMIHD

[5] = test system: Vero; test: Cytotoxicity against African green monkey Vero cells assessed as decrease in cell viability incubated for 72 hrs by resazurin assay; format: cell-based; details: Chlorocebus sabaeus
[6] = test system: Mycolicibacterium smegmatis; test: Inhibition of NDH-2 in wild type Mycobacterium smegmatis mc24517 inverted membrane vesicles assessed as reduction in oxygen consumption at 50 uM by NADH oxygen consumption assay; format: cell membranes; details: Membrane vesicle
[7] = test system: Mycobacterium tuberculosis H37Rv; test: Inhibition of NDH-2 in Mycobacterium tuberculosis H37Rv inverted membrane vesicles over expressing ndh gene assessed as reduction in oxygen consumption at 50 uM by NADH oxygen consumption assay; format: cell membranes; details: Membrane vesicle
[8] = target: D(2) dopamine receptor (Homo sapiens, UniProt P14416); test: Displacement of [3H]-Raclopride from human D2 receptor (unknown origin) expressed in HEK293 cell membranes; parameters: species or system Cell membrane
Sequence of D(2) dopamine receptor (P14416 whole entry): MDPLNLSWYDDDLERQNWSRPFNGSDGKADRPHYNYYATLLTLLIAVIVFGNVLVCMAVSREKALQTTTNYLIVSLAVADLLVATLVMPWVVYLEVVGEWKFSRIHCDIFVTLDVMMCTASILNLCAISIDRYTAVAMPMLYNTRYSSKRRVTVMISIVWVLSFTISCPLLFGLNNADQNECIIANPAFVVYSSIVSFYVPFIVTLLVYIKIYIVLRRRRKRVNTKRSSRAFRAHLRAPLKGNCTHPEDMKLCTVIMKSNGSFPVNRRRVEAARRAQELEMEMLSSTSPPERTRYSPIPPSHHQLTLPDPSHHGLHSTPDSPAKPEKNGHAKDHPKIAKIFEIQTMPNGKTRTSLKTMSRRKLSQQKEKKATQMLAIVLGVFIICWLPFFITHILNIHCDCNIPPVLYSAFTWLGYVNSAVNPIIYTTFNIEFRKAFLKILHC

[9] = test system: HepG2; test: Hepatotoxicity in human HepG2 cells at 10 uM incubated for 48 hrs by MTS assay; format: toxicity, cell-based; details: hepg2, 48 h
[10] = target: 5-hydroxytryptamine receptor 2A (Homo sapiens, UniProt P28223); test: Displacement of [3H]-Ketanserin from human 5HT2A receptor expressed in CHO-K1 cells; format: ADME, cell-based
Sequence of 5-hydroxytryptamine receptor 2A (P28223 whole entry): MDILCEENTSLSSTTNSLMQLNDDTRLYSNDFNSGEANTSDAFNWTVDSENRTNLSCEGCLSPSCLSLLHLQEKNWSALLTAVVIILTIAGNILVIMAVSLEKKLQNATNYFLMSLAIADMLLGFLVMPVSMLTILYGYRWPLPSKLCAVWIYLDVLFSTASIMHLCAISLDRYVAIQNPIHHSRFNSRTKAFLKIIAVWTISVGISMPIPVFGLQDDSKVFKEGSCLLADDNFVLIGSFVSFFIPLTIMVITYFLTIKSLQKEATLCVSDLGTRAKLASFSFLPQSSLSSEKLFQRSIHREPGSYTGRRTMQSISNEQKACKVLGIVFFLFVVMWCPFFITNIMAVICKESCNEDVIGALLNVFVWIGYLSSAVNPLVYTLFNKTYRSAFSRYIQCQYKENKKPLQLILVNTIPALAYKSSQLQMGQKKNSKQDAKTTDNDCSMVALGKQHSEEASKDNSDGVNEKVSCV

[11] = Metabolic stability in human liver microsomes by LC-MS/MS analysis; format: ADME, Microsome
[12] = test system: Mycobacterium tuberculosis; test: Antitubercular activity against Mycobacterium tuberculosis H37Rv incubated for 7 days by Microplate Alamar Blue Assay; format: functional; details: 168 h, time 7 day
[13] = test system: Mycobacterium tuberculosis; test: Antitubercular activity against Mycobacterium tuberculosis H37Rv incubated for 4 days by Microplate Alamar Blue Assay; format: functional; details: 96 h, time 4 day
[14] = Inhibition of NDH-2 in wild type Mycobacterium smegmatis mc24517 inverted membrane vesicles by NADH oxygen consumption assay; format: cell membranes, Mycolicibacterium smegmatis, Membrane vesicle
[15] = Inhibition of NDH-2 in Mycobacterium tuberculosis H37Rv inverted membrane vesicles over expressing ndh gene by NADH oxygen consumption assay; format: cell membranes, Membrane vesicle
[16] = test system: HepG2; test: Hepatotoxicity in human HepG2 cells at 50 uM incubated for 48 hrs by MTS assay; format: toxicity, cell-based; details: hepg2, 48 h

Work on NNC(=O)c1ccncc1 [ISONIAZID] yielded an MIC [1] of 0.25 µg/mL (≈ 1.82 µM) and an MIC90 [2] of 2.46 µg/mL (≈ 17.9 µM).
With CSc1ccc2c(c1)N(CCC1CCCCN1C)c1ccccc1S2 (stereo not drawn) [THIORIDAZINE] the MIC [1] was 2.4 µg/mL (≈ 6.48 µM), the Ki [3] was 71 nM and the Ki [4] was 181 nM. For the same molecule, the IC50 [5] was 17.8 µg/mL (≈ 48 µM) and the MIC90 [2] was 5.29 µg/mL (≈ 14.3 µM).
CN1CCCCC1CCN1c2ccc(Cl)cc2Sc2cc(Cl)cc(Cl)c21.Cl (stereo not drawn) showed an MIC [1] of 2.67 µg/mL and an IC50 [5] of 19.2 µg/mL.
CN(C)CCCN1c2ccc(Br)cc2Sc2cc(Br)ccc21.Cl gave an MIC [1] of 2.38 µg/mL, an IC50 [5] of 27 µg/mL and an inhibition [6] of 69.4%. For the same molecule, the inhibition [7] was 40.7%.
Work on Brc1ccc2c(c1)Sc1cc(Br)ccc1N2CCN1CCCC1 yielded an MIC [1] of 2.57 µg/mL (≈ 5.66 µM) and an IC50 [5] of 9.42 µg/mL (≈ 20.7 µM).
Molecule CN(C)CCCN1c2ccc(Cl)cc2Sc2cc(Cl)ccc21.Cl has an MIC [1] of 2.51 µg/mL and an IC50 [5] of 16.7 µg/mL.
Work on CC(=O)NC[C@H]1CN(c2ccc(N3CCOCC3)c(F)c2)C(=O)O1 [LINEZOLID] yielded an MIC [1] of 0.87 µg/mL (≈ 2.58 µM).
In the case of CN(C)CCCN1c2ccc(Br)cc2Sc2cc(Br)cc(F)c21.Cl, the MIC [1] is reported as 5.7 µg/mL and the IC50 [5] is reported as 34.7 µg/mL.
CN(C)CCCN1c2ccc(Cl)cc2Sc2cc(Cl)cc(Cl)c21.Cl gave an MIC [1] of 4.46 µg/mL and an IC50 [5] of 16.8 µg/mL.
CN(C)CCCN1c2ccccc2Sc2ccc(Cl)cc21 [CHLORPROMAZINE] showed an MIC [1] of 4.41 µg/mL (≈ 13.8 µM), an IC50 [5] of 26.5 µg/mL (≈ 83.2 µM) and an MIC90 [2] of 0.08 µg/mL (≈ 0.251 µM).
N=c1sc(-c2ccc(F)cc2)nn1CC(=O)N1c2ccc(Br)cc2Sc2cc(Br)ccc21 gave an MIC [1] of over 50 µg/mL.
For CN1CCCCC1CCN1c2ccc(Br)cc2[Se]c2cc(Br)ccc21.Cl (stereo not drawn), the Ki [8] was 367 nM, the Activity [9] was “Non-Toxic” and the MIC [1] was 2.35 µg/mL. The Ki [3] was 222 nM, the Ki [4] was 2340 nM and the IC50 [5] was 17.6 µg/mL. For the same molecule, the Ki [10] was 1760 nM and the Stabilty [11] was “Stable”.
For Brc1ccc2c(c1)Sc1cc(Br)ccc1N2CCCN1CCCC1.Cl, the MIC [1] was 1.45 µg/mL and the IC50 [5] was 17.1 µg/mL.
Molecule Brc1ccc2c(c1)Sc1cc(Br)ccc1N2CCN1CCOCC1.Cl has an MIC [1] of over 100 µg/mL and an IC50 [5] of over 100 µg/mL.
With CN(C)CCCN1c2ccccc2Sc2cc(Cl)ccc21.Cl the MIC [1] was 6.59 µg/mL and the IC50 [5] was 35.8 µg/mL.
CO[C@H]1/C=C/O[C@@]2(C)Oc3c(C)c(O)c4c(O)c(c(/C=N/N5CCN(C)CC5)c(O)c4c3C2=O)NC(=O)/C(C)=C\C=C\[C@H](C)[C@H](O)[C@@H](C)[C@@H](O)[C@@H](C)[C@H](OC(C)=O)[C@@H]1C [RIFAMPIN] gave an MIC [1] of 0.01 µg/mL (≈ 0.0122 µM), an MIC90 [12] of 0.06 µg/mL (≈ 0.0729 µM) and an MIC90 [2] of over 128 µg/mL. For the same molecule, the MIC90 [13] was 0.06 µg/mL (≈ 0.0729 µM).
Brc1ccc2c(c1)Sc1cc(Br)ccc1N2CCCN1CCOCC1.Cl gave an MIC [1] of 5.52 µg/mL and an IC50 [5] of over 50 µg/mL.
For Cl.Clc1cc(Cl)c2c(c1)Sc1cc(Cl)cc(Cl)c1N2CCCN1CCCC1, the MIC [1] was 1.5 µg/mL and the IC50 [5] was 18 µg/mL.
Molecule CCCCCCCc1cc(O)c2ccccc2[n+]1[O-] has an inhibition [6] of 18.1% and an inhibition [7] of 29.2%.
For CN1CCCCC1CCN1c2ccc(Br)cc2Sc2cc(Br)ccc21.Cl (stereo not drawn), the Ki [8] was 688 nM, the Activity [9] was “Toxic” and the MIC [1] was 1.5 µg/mL. For the same molecule, the Ki [3] was 758 nM, the Ki [4] was 2150 nM and the IC50 [5] was 18.3 µg/mL. It also gave a Ki [10] of 1750 nM, an MIC90 [12] of 3.1 µg/mL and an IC50 [14] of 4.7 µg/mL. The Stabilty [11] was “Unstable”, the MIC90 [2] was 2.96 µg/mL and the inhibition [6] was 93.7%. For the same molecule, the IC50 [15] was 11.2 µg/mL, the inhibition [7] was 84.8% and the MIC90 [13] was 3.1 µg/mL.
In the case of Brc1ccc2c(c1)Sc1cc(Br)ccc1N2Cc1ccccn1.Cl, the MIC [1] is reported as over 100 µg/mL and the IC50 [5] is reported as over 100 µg/mL.
CN1CCCCC1CCN1c2ccccc2Sc2cc(Cl)ccc21.Cl (stereo not drawn) showed an MIC [1] of 5.48 µg/mL, an IC50 [5] of 30.7 µg/mL and an inhibition [6] of 47.5%. The inhibition [7] was 12.5%.
CN1CCCCC1CCN1c2ccc(Br)cc2Sc2cc(Br)cc(F)c21.Cl (stereo not drawn) gave an MIC [1] of 2.65 µg/mL and an IC50 [5] of 17.7 µg/mL.
Work on CN1CCCCC1CCN1c2c(Cl)cc(Cl)cc2Sc2cc(Cl)cc(Cl)c21.Cl (stereo not drawn) yielded a Ki [8] of 639 nM, an MIC [1] of 1.55 µg/mL and a Ki [3] of 387 nM. For the same molecule, the Ki [4] was 1000 nM, the IC50 [5] was 26.9 µg/mL and the Ki [10] was 1240 nM. The MIC90 [12] was 3.1 µg/mL, the IC50 [14] was 3.6 µg/mL and the Activity [16] was “Non-Toxic”. The MIC90 [2] was 2.89 µg/mL, the inhibition [6] was 92.4% and the IC50 [15] was 4.5 µg/mL. It also gave an inhibition [7] of 74.2% and an MIC90 [13] of 3.1 µg/mL.
For CN1CCCCC1CCN1c2ccc(Cl)cc2Sc2cc(Cl)ccc21.Cl (stereo not drawn), the MIC [1] was 2.4 µg/mL, the IC50 [5] was 17.9 µg/mL and the IC50 [14] was 6.5 µg/mL. It also gave an inhibition [6] of 85.4% and an inhibition [7] of 59.3%.
With Cl.Clc1cc(Cl)c2c(c1)Sc1cc(Cl)cc(Cl)c1N2CCCN1CCOCC1 the MIC [1] was over 50 µg/mL.
